From PMC10321483 (Chemical Science, 2023)
Values joined by “and” are separate entries in the source; they are usually repeats but may differ in a detail not shown here. Identical values can stand only once. Like-named read-outs stand apart in the source and are kept apart here.

Key:
[1] = target: T1, LdtMt2 (Mycobacterium tuberculosis, UniProt I6Y9J2); experiment: Rate constant of covalent target inactivation (kinact/KI), endpoint competition assay with probe 2; assay type: biochemical; design: made in house; host or cells: E. coli; details: 100 nM LdtMt2, 10 µM probe 2, 3 h incubation; n=4
[2] = tested on: HepG2 cells; experiment: HepG2 cytotoxicity assay (CellTiter Glo); assay type: cell-based; details: 48 h, ATP read-out
Protocol: Solutions of the test compounds (250 nL per well; 11 serial dilutions of 1/3 with starting concentration 100 μM) were dispensed in tissue-culture treated black clear-bottomed 384-well plates (Greiner, cat. no. 781091) with an Echo 555 instrument. 25 μL of HepG2 (ATCC HB-8065) cells (∼3000 cells per well) grown to confluency in Eagle's Minimal Essential Medium (MEM) supplemented with 10% (v/v) heat-inactivated FBS, 1% (v/v) non-essential amino acids (NEAA), and 1% (v/v) penicillin/streptomycin were added to each well. Plates were incubated at 37 °C with 20% O2 and 5% CO2 for 48 h. The plates were then equilibrated to room temperature. ATP levels, measured with CellTiter Glo kit (Promega), were used as cell viability read-out. 25 μL of CellTiter Glo substrate dissolved in the buffer was added to each well. Plates were incubated at room temperature for 10 min and read on ViewLux (PerkinElmer) […].

[3] = target: T1, LdtMt2; experiment: biochemical; assay type: biochemical; design: made in house; host or cells: E. coli
[4] = tested on: M. tuberculosis (strain H37Rv); experiment: Extracellular assay: M. tuberculosis H37Rv in medium under replicating conditions; assay type: cell-based, Mycobacterium tuberculosis
[5] = tested on: M. tuberculosis (strain H37Rv) growth in THP1 cells; experiment: Intracellular assay: Mtb H37Rv-Luc in THP-1 macrophages; assay type: cell-based, Mycobacterium tuberculosis; details: 5 days, extrapolated from dose-response curve
[6] = target: T1, LdtMt2; experiment: biochemical; assay type: binding; design: made in house; host or cells: E. coli
Protocol: LdtMt2 (5 μM) was incubated with the inhibitor (500 μM) in assay buffer (50 mM tris pH 7.5) for 30 minutes at room temperature in 96-well white PCR plates (25 μL final volume, Starlab). SYPRO Orange (final concentration 6×, according to manufacturer's definition, Invitrogen) was then added and the plate was sealed using a transparent plastic film (Polyolefin StarSeal, Starlab). Fluorescence was monitored (with λex = 492 nm and λem = 610 nm) using a CFX96 Touch Real-Time PCR Detection System (Bio-Rad), while the temperature was increased from 20 to 95 °C in increments of 0.2 °C. Melting temperatures (Tms) were determined using the CFX Maestro Software (Bio-Rad).

[7] = target: T2, BlaC (Mycobacterium tuberculosis, UniProt P9WKD3); experiment: BlaC fluorogenic inhibition assay with FC5 (dose-response); assay type: biochemical; details: Table S5 HTS hits, 30 minute inhibitor pre-incubation, two independent repeats
T2 construct: made in house; host or cells: E. coli
Protocol: Two types of controls were used. […] In control 2, the BlaC mixture was substituted with the assay buffer. This mixture was incubated for 30 minutes at room temperature without shaking. […] Data were analysed using ActivityBase (IDBS).

[8] = Intrinsic thiol reactivity (kchem), competition with probe 2 for L-glutathione; assay type: physicochemical; details: for kchem (apparent intrinsic thiol reactivity): Table S5, L-glutathione 500 nM, probe 2 10 µM, 15 h; for log(kchem) probe 2 (mean ± SD): Table S11 assay validation
[9] = target: T1, LdtMt2; experiment: Jump dilution assay (reversibility, koff); assay type: biochemical; design: made in house; host or cells: E. coli; details: read-out: koff (off rate of complex with LdtMt2)
Protocol: LdtMt2 (10 μM final concentration) was incubated with the inhibitor (100 μM final concentration) in the assay buffer (50 mM HEPES, pH 7.2, 0.01% (v/v) Triton X-100) for 2 hours at room temperature, then serially diluted 1000× with assay buffer (final LdtMt2 concentration 10 nM). 20 μL of the diluted mixture was added to a black polystyrene, flat-bottomed 384-well μ-clear plate (clear bottomed, Greiner Bio-One, part number 781096). Probe 2 (final concentration 15 μM) was added using a MultiDrop Combi dispenser (ThermoFisher Scientific). Fluorescence was measured using a PHERAstar plate reader (BMG Labtech) with λex = 480 nm and λem = 520 nm. Readings were taken every 15 s for a period of 5 minutes, using bottom optic measurements. The off rate (koff) was determined using eqn (7).7 [drawing 3] where, P = formed product; Vs = velocity of no-inhibitor control; V0 = velocity of no-enzyme control, and P0 = initial fluorescence.
The half-life of the enzyme–inhibitor complex (t1/2) was calculated using eqn (8).8 [drawing 4]

[10] = target: T1, LdtMt2; details: 1 μM LdtMt2, denaturing acidic conditions
Protocol: LdtMt2 (1 μM) in buffer (50 mM tris, pH 7.5) was incubated with an inhibitor (100 μM, 10 μM, or 2 μM, as indicated). Mass spectrometry was performed using a RapidFire200 integrated autosampler/solid phase extraction (SPE) system (Agilent Technologies) coupled to an API40000 triple quadrupole mass spectrometer (Applied Biosystems) operating in the positive ionisation mode. Samples were taken after the specified incubation periods, loaded onto a C4 cartridge (Agilent Technologies), and eluted with organic phase (85% (v/v) acetonitrile, 15% (v/v) water, 0.1% (v/v) formic acid). The cartridge was washed with both the organic phase and an aqueous phase (water, 0.1% (v/v) formic acid). Data were analysed using MassHunter Qualitative Analysis B.07.00 (Agilent Technologies). Spectra were deconvoluted using the maximum entropy algorithm in the same programme.

[11] = design: method as in earlier work; details: Table S11; reported values; ref 6 (Sameshima et al., 2017); cited from earlier work

T1 sequence (I6Y9J2 56-408): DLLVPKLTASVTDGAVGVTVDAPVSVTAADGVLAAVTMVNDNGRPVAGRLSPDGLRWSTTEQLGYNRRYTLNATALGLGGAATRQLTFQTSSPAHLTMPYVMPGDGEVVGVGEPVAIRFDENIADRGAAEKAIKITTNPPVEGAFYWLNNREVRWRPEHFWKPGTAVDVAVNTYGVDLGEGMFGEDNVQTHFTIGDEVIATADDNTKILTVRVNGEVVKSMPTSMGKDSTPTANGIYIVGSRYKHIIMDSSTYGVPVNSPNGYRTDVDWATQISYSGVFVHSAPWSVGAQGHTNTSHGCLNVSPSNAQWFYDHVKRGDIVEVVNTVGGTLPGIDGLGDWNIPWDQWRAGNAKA
T2 sequence (P9WKD3 35-307): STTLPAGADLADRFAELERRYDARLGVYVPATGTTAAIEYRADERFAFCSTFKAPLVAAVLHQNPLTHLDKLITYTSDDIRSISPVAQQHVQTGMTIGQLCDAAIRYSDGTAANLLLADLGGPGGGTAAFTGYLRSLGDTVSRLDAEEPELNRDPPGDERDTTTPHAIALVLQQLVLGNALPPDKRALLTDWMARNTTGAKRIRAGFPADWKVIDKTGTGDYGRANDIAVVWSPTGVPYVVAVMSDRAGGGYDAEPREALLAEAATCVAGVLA

SMILES	kinact/KI [1] [M⁻¹ s⁻¹]	IC50 [2] [µM]	LE (ligand efficiency) [3]	MIC50 [4] [µM]	MIC50 intracellular [5]	ΔTm: difference in melting point of LdtMt2 relative to unreacted LdtMt2 (43.8 °C) [6]	log(kchem) probe 2 (mean ± SD) [8]	log(kchem) o-maleimide BODIPY (mean ± SD) [11]	further results
O=C1C=CC(=O)N1c1ccc(Oc2ccccc2)c(Cl)c1 [Compound 5]	116 ± 6.2	2.51 ± 0.12	0.53	> 100	25.7 ± 0.30 µM and < 50 µM	-0.2 °C	–	–	Tm: melting point of LdtMt2 after pre-incubation with the compound ([6]; pH 7.5): 43.6 ± 0.16 °C
O=C(OCN1C(=O)C=CC1=O)c1ccccc1 [Compound 7]	156 ± 5.1	3.9 ± 0.88	0.66	> 100	39.8 ± 0.0 µM and < 50 µM	–	–	–	Tm: melting point of LdtMt2 after pre-incubation with the compound ([6]; pH 7.5): 43.1 ± 0.09 °C
CCOc1ccc(CN2C(=O)C(=O)c3cc(Br)cc(C)c32)cc1OC [Compound 16]	–	–	–	–	–	–	–	–	IC50 ([7]; pIC50 BlaC): 36.3 µM; kchem (apparent intrinsic thiol reactivity) [8]: < 0.08 M⁻¹ s⁻¹; koff [9]: 0.0286 s⁻¹; LE (ligand efficiency) ([3]; Table S5, for LdtMt2): 0.45; IC50 ([3]; Table S5 HTS hits, 30 minute inhibitor pre-incubation, two independent repeats, read-out: pIC50 LdtMt2 (converted)): 0.178 µM; IC50 ([3]; Table S8, inhibitor pre-incubation time 0 min, read-out: pIC50, 0 min (converted)): 0.302 µM; IC50 ([3]; Table S8, inhibitor pre-incubation time 120 min, read-out: pIC50, 120 min (converted)): 0.407 µM; IC50 ([3]; pIC50, 10 min, Table S8, inhibitor pre-incubation time 10 min): 0.363 µM; IC50 ([3]; pIC50, 60 min, Table S8, inhibitor pre-incubation time 60 min): 0.372 µM; Tm: melting point of LdtMt2 after pre-incubation with the compound ([6]; 5 µM LdtMt2, 500 µM inhibitor, SYPRO Orange, 50 mM Tris pH 7.5): 46.8 ± 0.00 °C; ΔTm at 500 µM ([6]; read-out: ΔTm: difference in melting point of LdtMt2 relative to unreacted LdtMt2 (43.8 °C)): 3 °C
O=C1C(=O)N(Cc2cccc3ccccc23)c2ccc(Br)cc21 [Compound 18]	–	42.3 ± 3.4	0.49	> 100	35.5 ± 5.4 µM and < 50 µM	+2.4	–	–	pIC50 BlaC [7]: < 4.0; kchem (apparent intrinsic thiol reactivity) [8]: < 0.08 M⁻¹ s⁻¹; covalent modification of LdtMt2 (adduct observed by SPE-MS) [10]: not observed to modify LdtMt2; pIC50, 0 min [3]: 6.39 ± 0.07; pIC50, 10 min [3]: 6.24 ± 0.23; pIC50, 60 min [3]: 6.49 ± 0.35; pIC50, 120 min [3]: 6.56 ± 0.35; Tm: melting point of LdtMt2 after pre-incubation with the compound ([6]; pH 7.5, in °C (unit assumed)): 46.2 ± 0.00
N#Cn1c(-c2ccncc2)nc2ccc(C(=O)c3ccccc3)cc21 [Compound 36]	51.0 ± 3.4	32.7 ± 0.38	0.45	> 100	29.5 ± 0.0 µM and < 50 µM	-3.0	–	–	pIC50 BlaC [7]: < 4.0; lowered the melting temperature of LdtMt2 by [6]: 3.0 °C; Tm: melting point of LdtMt2 after pre-incubation with the compound ([6]; pH 7.5, in °C (unit assumed)): 40.8 ± 0.59
N#C[s+]1c2ccccc2c2ccccc21.O=S(=O)([O-])C(F)(F)F [Compound 45, reference compound]	–	–	–	–	–	–	–	–	covalent modification of LdtMt2 (adduct observed by SPE-MS) [10]: did not modify LdtMt2
CCOc1ccc(C(=O)C=CC(=O)O)cc1OCC [i]	–	–	–	–	–	–	0.65 ± 0.06	0.86 ± 0.09	–
Cc1ccc(C(=O)C=CC(=O)O)cc1C [ii]	–	–	–	–	–	–	0.76 ± 0.03	1.07 ± 0.09	–
O=C(O)C=CC(=O)c1ccc(Br)cc1 [iii]	–	–	–	–	–	–	0.93 ± 0.02	1.34 ± 0.10	–
